According to paper PMC11785708, “Design and synthesis of new quinazolinone derivatives: investigation of antimicrobial and biofilm inhibition effects” (Molecular Diversity, 2024):
Converted amounts (≈) assume the structure as drawn.

Columns and labels:
[1] = system: P. aeruginosa ATCC 27953; assay: Inhibition of exopolysaccharide (EPS) production; assay type: cell-based, Pseudomonas aeruginosa; conditions: means ± standard errors
Protocol: The inhibition of exopolysaccharide production by P. aeruginosa ATCC 27953 using quinazolinone derivatives was assessed according to total carbohydrate measurement.
P. aeruginosa’s biofilm was grown in the presence or absence of compounds (19, 20). Cells were incubated for 1 h with an equal volume of 5% (v/v) phenol and 5 × volume of concentrated sulfuric acid containing 0.2% (w/v) hydrazine sulphate then centrifuged at 10,000 g for 10 min (Z 326 K, HERMLE Labortechnik GmbH, Wehingen, Germany). The optical density of the supernatant was measured at 490 nm and the reduction in EPS was calculated as follows: EPSquantification%=OD490ofcontrol-OD490oftest/OD490ofcontrol×100

[2] = system: B. cereus ATCC 6629; assay: Agar well diffusion, B. cereus; assay type: cell-based; conditions: Bacillus cereus, ATCC6629; 100 μl of test compound 20 mg/ml in DMF; ciprofloxacin and fluconazole 30 μg/ml; 24 h; mean ± SD; read-out: diameters of inhibition zone, B. cereus ATCC 6629
Protocol: (§1) The antimicrobial activity was tested against Gram positive bacteria: Bacillus cereus (B. cereus ATCC 6629), Bacillus subtilis (B. subtilis ATCC 6633), Staphylococcus aureus (S. aureus ATCC 6538), Gram negative bacteria: Klebsiella pneumoniae (K. pneumoniae ATCC 13883), Pseudomonas aeruginosa (P. aeruginosa ATCC 27953) and Candida albicans (C. albicans ATCC 10231). Glycerol stocks were thawed upon need and propagated into nutrient broth at 37 °C. The antibacterial activity of the compounds 9-32 was carried out in vitro using the agar well diffusion method, originally reported by […] and Bauer and coworkers and described by the National Committee for Clinical Laboratory Standards (NCCLS). Bacterial strains, adjusted at […] (equivalent to 0.5 McFarland), were used to inoculate nutrient agar plates. 9-mm diameter wells were punched into the solidified nutrient agar plates using sterile cork borer and 100 μl samples of the test compounds, dissolved in dimethyl formamide (DMF) at 20 mg/ml concentrations, were added and allowed to diffuse at 4 °C for 2 h. Subsequently, the plates were incubated overnight in an upright position at 37 °C. DMF was used as a negative control while ciprofloxacin and fluconazole (30 μg/ml) served as positive controls. After 24 h incubation, the diameters of the growth inhibition zones were recorded in mm. Data was expressed as mean ± standard deviation of three replicates.

[3] = system: P. aeruginosa ATCC 27953; assay: Agar well diffusion, P. aeruginosa; assay type: cell-based; conditions: Pseudomonas aeruginosa, ATCC27953; 100 μl of test compound 20 mg/ml in DMF; ciprofloxacin and fluconazole 30 μg/ml; 24 h; mean ± SD; read-out: diameters of inhibition zone, P. aeruginosa ATCC 27953
Protocol: as §1

[4] = system: B. subtilis ATCC 6633; assay: Agar well diffusion, B. subtilis; assay type: cell-based; conditions: Bacillus subtilis, ATCC6633; 100 μl of test compound 20 mg/ml in DMF; ciprofloxacin and fluconazole 30 μg/ml; 24 h; mean ± SD; read-out: diameters of inhibition zone, B. subtilis ATCC 6633
Protocol: as §1

[5] = system: K. pneumoniae ATCC 13883; assay: Agar well diffusion, K. pneumoniae; assay type: cell-based; conditions: Klebsiella pneumoniae, ATCC13883; 100 μl of test compound 20 mg/ml in DMF; ciprofloxacin and fluconazole 30 μg/ml; 24 h; mean ± SD; read-out: diameters of inhibition zone, K. pneumoniae ATCC 13883
Protocol: as §1

[6] = system: S. aureus ATCC 6538; assay: Agar well diffusion, S. aureus; assay type: cell-based; conditions: Staphylococcus aureus, ATCC6538; 100 μl of test compound 20 mg/ml in DMF; ciprofloxacin and fluconazole 30 μg/ml; 24 h; mean ± SD; read-out: diameters of inhibition zone, S. aureus ATCC 6538
Protocol: as §1

[7] = system: C. albicans ATCC 10231; assay: Agar well diffusion, C. albicans; assay type: cell-based; conditions: Candida albicans, ATCC10231; 100 μl of test compound 20 mg/ml in DMF; ciprofloxacin and fluconazole 30 μg/ml; 24 h; mean ± SD; read-out: diameters of inhibition zone, C. albicans ATCC 10231
Protocol: as §1

[8] = system: S. aureus ATCC 6538; assay: MIC determination, S. aureus; assay type: cell-based, Staphylococcus aureus; conditions: serial dilutions, triplicate; for MIC: Staphylococcus aureus, ATCC6538
Protocol: (§2) Serial dilutions of the test compounds were tested to determine their MIC against the most susceptible organisms. The MIC was expressed as the lowest concentration which inhibited the visible growth of the corresponding microorganism. All assays were performed in triplicate.

[9] = system: B. subtilis ATCC 6633; assay: MIC determination, B. subtilis; assay type: cell-based, Bacillus subtilis; conditions: Bacillus subtilis, ATCC6633; serial dilutions, triplicate
Protocol: as §2

[10] = system: C. albicans ATCC 10231; assay: MIC determination, C. albicans; assay type: cell-based, Candida albicans; conditions: serial dilutions, triplicate; for MIC: Candida albicans, ATCC10231
Protocol: as §2

[11] = Cell viability MTT assay; assay type: cell-based; conditions: human, BJ1 cells (normal skin fibroblasts)
Protocol: Cell viability testing at 5 mg/ml was carried out by colorimetric MTT assay on human normal cell line BJ1 (skin fibroblasts) to investigate the toxicity of the most broad spectrum derivatives 9, 15, 16, 18, 19, 20 and 29 (Table 3). The viability of the cells treated with the aforementioned derivatives was more than 87% at 5 mg/ml concentration. This gives indication that the compounds are tolerated and nontoxic for human cells, as the cytotoxic dose was higher than the therapeutic dose on most of microorganisms. It is worth mentioning that the safe limit of the percent of dead cells is not an absolute value and could be more than 10% as reported in previous studies.
The most broad spectrum compounds were evaluated for their cytotoxic activity against BJ1 cell line using colorimetric MTT [3-(4,5-dimethylthiazol-2-yl)-2,5-diphenyltetrazolium bromide] assay.

[12] = system: K. pneumoniae ATCC 13883; assay: MIC determination, K. pneumoniae; assay type: cell-based, Klebsiella pneumoniae; conditions: Klebsiella pneumoniae, ATCC13883; serial dilutions, triplicate
Protocol: as §2

[13] = system: B. cereus ATCC 6629; assay: MIC determination, B. cereus; assay type: cell-based, Bacillus cereus; conditions: Bacillus cereus, ATCC6629; serial dilutions, triplicate
Protocol: as §2

[14] = system: P. aeruginosa ATCC 27953; assay: MIC determination, P. aeruginosa; assay type: cell-based, Pseudomonas aeruginosa; conditions: Pseudomonas aeruginosa, ATCC27953; serial dilutions, triplicate
Protocol: as §2

MIC [8]	MIC [9]	MIC [10]	MIC, C. albicans ATCC 10231 [10]	melting point	MIC [12]	MIC, S. aureus ATCC 6538 [8]	MIC [13]	MIC [14]	Structure (SMILES)	% EPS inhibition ([1]; 1/4 MIC)	% EPS inhibition ([1]; 1 MIC)	% EPS inhibition ([1]; 2 MIC)	% EPS inhibition ([1]; 2 MIC, listed as ciprofloxacin)	zone of inhibition at 20000 µg/mL [2]	zone of inhibition at 20000 µg/mL [3]	zone of inhibition at 20000 µg/mL [4]	zone of inhibition at 20000 µg/mL [5]	zone of inhibition at 20000 µg/mL [6]	zone of inhibition at 20000 µg/mL [7]	viability at 5 mg/ml [11]
–	–	–	–	–	–	–	–	–	O=C(O)c1cn(C2CC2)c2cc(N3CCNCC3)c(F)cc2c1=O [Ciprofloxacin, reference compound]	1.46 ± 0.28%	8.98 ± 0.52%	16.54 ± 0.61%	~ 16%	29 ± 0.18 mm	35 ± 0.28 mm	33 ± 0.2 mm	26 ± 0.17 mm	23 ± 0.15 mm	–	–
2000 ± 290 µg/mL (≈ 6.02 mM)	2000 ± 290 µg/mL (≈ 6.02 mM)	5000 µg/mL (≈ 15 mM)	5000 ± 290 µg/mL (≈ 15 mM)	108 to 110 °C	2000 µg/mL (≈ 6.02 mM)	–	–	–	O=c1c2ccccc2nc(CN2CCCC2)n1N=Cc1ccccc1 [Compound 15, 3-(Benzylideneamino)-2-(pyrrolidin-1-ylmethyl)quinazolin-4(3H)-one]	–	–	–	–	–	–	10 ± 0.33 mm	13 ± 0.41 mm	12 ± 0.26 mm	11 ± 0.11 mm	88.4 ± 0.91%
500 µg/mL (≈ 1.36 mM)	–	10000 ± 500 µg/mL (≈ 27.3 mM)	–	138 °C	–	500 ± 0 µg/mL (≈ 1.36 mM)	2000 ± 140 µg/mL (≈ 5.45 mM)	1500 µg/mL (≈ 4.09 mM)	O=c1c2ccccc2nc(CN2CCCC2)n1N=Cc1ccc(Cl)cc1 [Compound 16, 3-[(4-Chlorobenzylidene)amino]-2-(pyrrolidin-1-ylmethyl).quinazolin-4(3H)-one]	–	–	–	–	13 ± 0.14 mm	17 ± 0.26 mm	–	–	12 ± 0.08 mm	13 ± 0.29 mm	93.5 ± 1.54%
